The NIST ThermoML archive (doi:10.1021/je800930v)

What was measured:
[1] = 101 kPa, Liquid
[2] = xn = mol fraction of the nth substance listed; settings: 101 kPa, Liquid

CCCCO [butan-1-ol]
[1]
Settings | mass density [kg/m3] | viscosity [mPa·s]
298.15 K | 805.8 | 2.588
308.15 K | 798.08 | 1.991
318.15 K | 790.22 | 1.555
328.15 K | 782.17 | 1.228
338.15 K | 773.88 | 0.981

O=C(O)C1CC1 [cyclopropanecarboxylic acid]
[1]
Settings | mass density [kg/m3] | viscosity [mPa·s]
298.15 K | 1082.92 | 3.306
308.15 K | 1072.97 | 2.603
318.15 K | 1063.04 | 2.102
328.15 K | 1053.12 | 1.739
338.15 K | 1043.2 | 1.459

O=C(O)C1CC1 [cyclopropanecarboxylic acid] + CCO
[2]
Settings | mass density, 298.15 K [kg/m3] | mass density, 308.15 K [kg/m3] | mass density, 318.15 K [kg/m3] | mass density, 328.15 K [kg/m3] | viscosity, 298.15 K [mPa·s] | viscosity, 308.15 K [mPa·s] | viscosity, 318.15 K [mPa·s] | viscosity, 328.15 K [mPa·s]
x1 = 0.0787 | 820.26 | 811.57 | 802.61 | 793.34 | 1.272 | 1.043 | 0.865 | 0.723
x1 = 0.161 | 853.87 | 844.96 | 835.92 | 826.69 | 1.469 | 1.201 | 0.99 | 0.825
x1 = 0.2475 | 886.51 | 877.38 | 868.1 | 858.68 | 1.711 | 1.388 | 1.136 | 0.947
x1 = 0.3384 | 917.74 | 908.48 | 899.1 | 889.59 | 1.985 | 1.596 | 1.299 | 1.073
x1 = 0.4341 | 947.8 | 938.44 | 928.98 | 919.39 | 2.279 | 1.814 | 1.47 | 1.208
x1 = 0.535 | 976.75 | 967.28 | 957.74 | 948.09 | 2.562 | 2.029 | 1.636 | 1.342
x1 = 0.6415 | 1004.67 | 995.1 | 985.47 | 975.77 | 2.818 | 2.225 | 1.789 | 1.467
x1 = 0.7542 | 1031.56 | 1021.89 | 1012.17 | 1002.41 | 3.035 | 2.391 | 1.895 | 1.557
x1 = 0.8734 | 1057.73 | 1047.94 | 1038.12 | 1028.3 | 3.204 | 2.532 | 2.024 | 1.674
x1 = 1 | 1082.92 | 1072.97 | 1063.04 | 1053.12 | 3.306 | 2.603 | 2.102 | 1.739

O=C(O)C1CC1 [cyclopropanecarboxylic acid] + CO
[2]
Settings | mass density, 298.15 K [kg/m3] | mass density, 308.15 K [kg/m3] | mass density, 318.15 K [kg/m3] | mass density, 328.15 K [kg/m3] | viscosity, 298.15 K [mPa·s] | viscosity, 308.15 K [mPa·s] | viscosity, 318.15 K [mPa·s] | viscosity, 328.15 K [mPa·s]
x1 = 0.1 | 846.5 | 837.02 | 827.45 | 817.74 | 0.773 | 0.651 | 0.572 | 0.499
x1 = 0.2 | 895.02 | 885.53 | 875.84 | 866.23 | 1.052 | 0.886 | 0.753 | 0.645
x1 = 0.3 | 935.16 | 925.62 | 916 | 906.25 | 1.392 | 1.151 | 0.965 | 0.816
x1 = 0.3999 | 968.42 | 958.83 | 949.18 | 939.42 | 1.778 | 1.451 | 1.199 | 1
x1 = 0.4994 | 996.21 | 986.56 | 976.86 | 967.07 | 2.189 | 1.765 | 1.44 | 1.191
x1 = 0.5989 | 1019.49 | 1009.79 | 1000.06 | 990.24 | 2.557 | 2.029 | 1.641 | 1.349
x1 = 0.7001 | 1039.41 | 1029.65 | 1019.87 | 1010.04 | 2.887 | 2.227 | 1.825 | 1.494
x1 = 0.8001 | 1056.17 | 1046.35 | 1036.53 | 1026.65 | 3.139 | 2.449 | 1.963 | 1.604
x1 = 0.9 | 1070.57 | 1060.68 | 1050.81 | 1040.92 | 3.298 | 2.553 | 2.047 | 1.678
x1 = 1 | 1082.92 | 1072.97 | 1063.04 | 1053.12 | 3.306 | 2.603 | 2.102 | 1.739

CCO [ethanol]
[1]
Settings | mass density [kg/m3] | viscosity [mPa·s]
298.15 K | 785.44 | 1.097
308.15 K | 776.78 | 0.908
318.15 K | 767.94 | 0.756
328.15 K | 758.92 | 0.634

CCO [ethanol] + O=C(O)C1CC1
[2], x2 = 0
Settings | mass density [kg/m3] | viscosity [mPa·s]
298.15 K | 785.44 | 1.097
308.15 K | 776.78 | 0.908
318.15 K | 767.94 | 0.756
328.15 K | 758.92 | 0.634

CO [methanol]
[1]
Settings | mass density [kg/m3] | viscosity [mPa·s]
298.15 K | 787.01 | 0.556
308.15 K | 777.54 | 0.484
318.15 K | 767.98 | 0.424
328.15 K | 758.28 | 0.372

CO [methanol] + O=C(O)C1CC1
[2], x2 = 0
Settings | mass density [kg/m3] | viscosity [mPa·s]
298.15 K | 787.01 | 0.556
308.15 K | 777.54 | 0.484
318.15 K | 767.98 | 0.424
328.15 K | 758.28 | 0.372

CCCO [propan-1-ol]
[1]
Settings | mass density [kg/m3] | viscosity [mPa·s]
298.15 K | 799.6 | 1.955
308.15 K | 791.49 | 1.538
318.15 K | 783.22 | 1.224
328.15 K | 774.73 | 0.986
338.15 K | 765.98 | 0.801

CCCO [propan-1-ol] + O=C(O)C1CC1
[2], x2 = 0
Settings | mass density [kg/m3] | viscosity [mPa·s]
298.15 K | 799.6 | 1.955
308.15 K | 791.49 | 1.538
318.15 K | 783.22 | 1.224
328.15 K | 774.73 | 0.986
338.15 K | 765.98 | 0.801
